Measurements reported in patent US20100285115A1, “Novel Antiretroviral Combination” (CIPLA LIMITED, priority 2007, published 2010).

Key:
[1] = Stability study of Atazanavir and Ritonavir tablet; type: physicochemical
Excerpt: Stability study data of Atazanavir and Ritonavir tablet: [table]

[2] = manufactured in solid dosage form such as tablet; U.S. Pat. No. 6,458,818; cited from earlier work

Assay (%) (Limit 90-110% of Labelled amount) ([1]; 25° C./60% RH, 2 M) | Assay (%) (Limit 90-110% of Labelled amount) ([1]; 40° C./75% RH, 2 M) | Assay (%) (Limit 90-110% of Labelled amount) ([1]; Initial) | SMILES | oral bioavailability [2]
99.0 | 98 | 100.3 | COC(=O)N[C@H](C(=O)N[C@@H](Cc1ccccc1)[C@@H](O)CN(Cc1ccc(-c2ccccn2)cc1)NC(=O)[C@@H](NC(=O)OC)C(C)(C)C)C(C)(C)C [Atazanavir] | –
99.3 | 96 | 99.5 | CC(C)c1nc(CN(C)C(=O)N[C@H](C(=O)N[C@@H](Cc2ccccc2)C[C@H](O)[C@H](Cc2ccccc2)NC(=O)OCc2cncs2)C(C)C)cs1 [Ritonavir] | poor
